Patent publication US6693104B2, “Theobromine with an anti-carcinogenic activity” (Lotte Confectionery Co., Ltd., priority 2001, dated 2004)

Assays:
HepG2 = assay: 3H thymidine uptake assay, liver cancer cells; assay type: cell-based; conditions: HepG2, various concentrations, 72 hr, FIG. 3
Experimental: The inhibitory effect of theobromine on the proliferation of liver cancer cells was examined by using ^3H thymidine uptake assay (Marshall, E. S. et al. European J. Cancer, 30A: 1370-1376, 1994). HepG2 was used as liver cancer cells. The HepG2 liver cancer cells were cultured in RPMI-1640 media with 10% FBS, 100 IU/mL of penicillin and 100 μg/mL of streptomycin, in a 37° C. incubator with 5% CO2 (Forma Scientific Co., Marjetta, Ohio, USA). The media were purchased from GIBCO BRL (Grand Island, N.Y., USA). Thus cultured HepG2 liver cancer cells were transferred to 96 well plates, each of which contains 2×10^4 cells and were added with various concentrations of theobromine obtained from the reference examples 1-3 and were cultured for 72 hr. Six hours prior to recovery of the above cells, each well was added with 1 μCi of ^3H-Thymidine (Sigma, St. Louis, Mo., USA). After completion of the culture, the cells were recovered into a glass fiber filter (Brandel Inc., Gaithersburg, Mass., USA) by using a recovery instrument (Cambridge Scientific Inc., Cambridge, Mass., USA). The incorporation of ^3H-thymidine of recovered cells after combining with 3 mL of scintillation cocktail solution (Wallac, Turku, Finland) was examined in a liquid scintillation counter (Wallac, Turku, Finland). The whole process was repeated three times according to the above method.

WB-F344 cells = assay: Scrape Loading/Dye Transfer (SL/DT) assay: suppression of gap junction channel by H2O2; assay type: cell-based; conditions: 200 μM theobromine, 400 μM H2O2, WB-F344 rat liver epithelial cells, Lucifer Yellow, FIG. 1
Experimental: The effect of theobromine on the suppression of gap junction channel induced by H2O2 was examined according to a known method of Scrape Loading/Dye Transfer (SL/DT) assay (Upham, B. L., Kang, K. S., Cho, H. Y., & Trosko, J. E., Carcinogenesis, 18: 37-42, 1997), as further explained below.
WB-F344 cells were used as a liver cell in order to examine its inhibitory effect on the suppression of gap junction channel in liver cells. The above liver cells were cultured in a MEM-media with 10% FBS, added with 100 IU/mL of penicillin and 100 μg/mL of streptomycin, in an incubator at 37° C. with 5% CO2 (Forma Scientific Co., Marjetta, Ohio, USA). The media compositions used in the above culture were purchased from GIBCO BRL (Grand Island, N.Y., USA). Thus cultured liver cells in media were transferred to each 2 mL petri dish (1×10^5 cells/mL) and cultured for 44 hr. Then the above culturing media were replaced with fresh media with various concentrations of theobromine while the control group was also replaced with fresh media only. Four hours after that, the media were treated theobromine with various concentrations 400 μM by H2O2 together while the control group was replaced with fresh medial. […]

SNUC2A = assay: 3H thymidine uptake assay, colon cancer cells; assay type: cell-based; conditions: various concentrations, FIG. 5
[1] = assay type: in vivo; conditions: 0.5 g/kg, in DMSO diluted in water, observed for 7 days
Experimental: The toxicity of theobromine of the present invention was performed as follows.

SNU1 = assay: 3H thymidine uptake assay, gastric cancer cells; assay type: cell-based; conditions: SNU1, various concentrations, FIG. 4

**Q.** For `Cn1cnc2c1c(=O)[nH]c(=O)n2C` [theobromine], which “inhibition rate of DNA synthesis of liver cancer cells” value (HepG2) is on record?
**A.** The value was “increased in a dose-dependent manner”.

**Q.** What about the “inhibition of the suppression of gap junction channel by H2O2” value (WB-F344 cells) of the same molecule?
**A.** The value was “completely inhibit the suppression of gap junction channel”.

**Q.** What about the “inhibition rate of DNA synthesis of colon cancer cells” value (SNUC2A) of the same molecule?
**A.** Its value is “increased in a dose-dependent manner”.

**Q.** What about the survival [1] of the same molecule?
**A.** The survival was “all mice survived”.

**Q.** What about the “inhibition rate of DNA synthesis of gastric cancer cells” value (SNU1) of the same molecule?
**A.** Its value is “increased in a dose-dependent manner”.
